Test results published in patent US20240294550A1, “8-OXA-3-AZABICYCLO[3.2.1]OCTANE COMPOUNDS OR SALT THEREOF, AND PREPARATION METHOD AND USE THEREOF” (LITTDD MEDICINES LTD, priority 2021, published 2024).
≈ marks a conversion by molar mass, not a printed value. Read-outs that look alike come from different tables or passages of the source.

Key:
[1] = Equilibrium solubility in FaSSIF; format: physicochemical; conditions: thermodynamic from solid; FaSSIF pH 6.5, shaken 24 hours
Method: The compound powder was weighed into a volumetric flask, 450 μL of pH 6.5 FaSSIF solution was added to obtain a supersaturated suspension, the samples were vortexed for at least 2 minutes, and the volumetric flasks were shaken on a vibrating screen at 800 rpm for 24 hours, and then centrifuged at 4000 rpm for 20 minutes. The compressed filtrate was added to a HPLC system, and the concentrations were calculated by a standard curve method.

[2] = Metabolic stability in mouse liver microsomes; format: in vitro ADME, CD-1 mice
Method: (§1) Drug-like Properties: Concepts, Structure Design and Methods: from ADME to Toxicity Optimization. […] Screen. […] After incubation for appropriate time (such as 5, 10, 20, 30 and 60 minutes), samples were collected, and an appropriate termination solution (glacial acetonitrile containing 200 ng/mL tolbutamide and 200 ng/mL labetalol (i.e. acetonitrile at 4° C.)) was added to stop the reaction. Sample treatment (n=1): each appropriate sample was added, vortexed and centrifuged at high speed. The supernatants were collected, and detected the substrate by HPLC-MS/MS. The peak area at the 0 min was set as 100%. The peak areas at other time points were converted to percentages of the remaining amount. The natural logarithms of the percentage of remaining amount at each time point was plotted against the incubation time, and the slope (−k) was calculated. Then, Clint (μL/min/mg) and half-life (T½, min) of the compounds were calculated following the equation: Inherent clearance rate (Clint)=(k*Volume of incubation solution)/Mass of liver microsomes.

[3] = Metabolic stability in human liver microsomes; format: in vitro ADME
Method: as §1

[4] = Pharmacokinetic (PK) assay in mice; format: in vivo; conditions: CD-1 mice; for AUC(0-t): read-out: AUC0-24 h
Method: The PK of each compound was determined as follows: 6 CD-1 mice (obtained from Shanghai Lingchang Biotechnology Co., Ltd.) were divided into two groups, 3 mice in each group. […] Blood samples were collected from saphenous vein of lower leg in each group at 0, 0.083, 0.25, 0.5, 1, 2, 4, 6, 8 and 24 h after administration. Approximately 40 μL of the blood samples were collected in anticoagulant tubes containing EDTA-K2. Immediately after collection, the tubes were inverted at least 5 times to ensure adequate mixing, and then placed on ice. The blood samples collected at each time point were centrifuged at 4° C., 8000 rpm for 5 minutes to obtain plasma. Another 1.5 mL centrifuge tube was marked with the compound name, animal number, and time point, and the plasma was transferred to this tube. The plasma was stored at −80° C. until analysis.
Compound concentrations in plasma were determined by UPLC-MS/MS method, and the pharmacokinetic parameters were calculated by Phoenix WinNolin 6.4 pharmacokinetic software on the obtained data.

LOVO cells = test: Cell proliferation assay (CellTiter-Glo); format: cell-based; conditions: Homo sapiens, 96 hours
Method: The cell proliferation inhibition effect of the compound of the invention was tested using CellTiter-Glo™ cell viability assay kit. This kit uses luciferase as the detector. During the luminescence process, the luciferase requires the participation of ATP. CellTiter-Glo™ reagent was added to the cell culture medium, and the luminescence value was measured. The light signal is proportional to the amount of ATP present in the system, and ATP positively correlates with the number of viable cells present, thus the cell proliferation activity is measured.
Cell culture and seeding: LOVO cells in logarithmic growth phase (human colon carcinoma cells) (ATCC CCL-229) were harvested and counted using a platelet counter. Trypan blue exclusion method was used to detect the cell viability to ensure that the cell viability was above 90%. 90 μL of cell suspension (RPMI1640+10% fetal bovine serum) was added to a 96-well transparent flat-bottom black-wall plate (Thermo, 165305) respectively, and the cell concentration was adjusted to 3000/well/90 μl. Cells in the 96-well plate were incubated overnight at 37° C., 5% CO2 with 95% humidity (Thermo, Model 3100 Series).
Firstly, DMSO was used as the solvent to prepare 10 mM mother solution of the test compounds, and then PBS was used to dilute 100 times to prepare a solution of 10 times of final concentration, the highest concentration was 100 μM. 10 μL solution of the test compounds was added to each well of the 96 well plate inoculated with cells, namely the solution was further diluted 10 times to reach the final concentration of 10 μM. Starting from 10 μM, the final concentration of the test compound was 3-fold serially diluted, with 9 concentrations in total with 3 triplicates for each concentration. The 96 well plates with the test compounds and cells were incubated at 37° C., 5% CO2 and 95% humidity for 96 hours, and then CellTiter Glo analysis was performed.
CellTiter-Glo Reagents (CellTiter Glo R Luminescent Cell Viability Assay, Promega, G7572) were melted and the 96-well plates were equilibrated to room temperature for 30 minutes. An equal volume of CellTiter-Glo solution was added to each well, and the cells were lysed by shaking on the fixed orbit shaker for 5 minutes. The assay plates were left at room temperature for 20 minutes to stabilize the luminescence signal, and the luminescence signals were read using the SpectraMax multi-labeled microplate detector (MD, M3).
Data were analyzed using GraphPad Prism 7.0 software, fitted with non-linear S-curve regression to derive the dose-response curves, and IC50 values were calculated therefrom.
Cell survival rate (%)=(LumDrug to be tested−LumCulture medium control)/(LumCell control−LumCulture medium control)×100%

Work on `C[C@@H]1COCCN1c1cc(N2CC3CCC(C2)O3)nc2c(-c3cc[nH]n3)cnn12` [Example 1, 3-(7-((R)-3-methylmorpholino)-3-(1H-pyrazol-3-yl)pyrazolo[1,5-a]pyrimidin-5-yl)-8-oxa-3-azabicyclo[3.2.1]octane] yielded a solubility at 24 h [1] of 1140 µg/mL (≈ 2880 µM), a half-life at 1 μM ([2]; CD-1, 1 μM compound) of 0.972 h and a microsomal CLint at 1 μM ([2]; CD-1, read-out: CLint(mic)) of 23.8 µL/min/mg. The “Remain % (T = 60 min)” value ([2]; T = 60 min) was 44.4%, the half-life at 1 μM ([3]; 1 μM compound) was 1.97 h and the “Remain % (T = 60 min)” value ([3]; T = 60 min) was 65.0%. It also gave a microsomal CLint at 1 μM ([3]; read-out: CLint(mic)) of 11.7 µL/min/mg, a CL_obs ([4]; IV dose 1 mg/kg) of 18.3 mL/min/kg and a half-life ([4]; mouse, plasma, IV dose 1 mg/kg) of 1.51 h. For the same molecule, the Vd ([4]; mouse, plasma, IV dose 1 mg/kg, read-out: Vss) was 1.68 L/kg, the half-life ([4]; mouse, plasma, Po dose 5 mg/kg) was 2.57 h and the bioavailability ([4]; mouse, plasma, Po dose 5 mg/kg vs IV dose 1 mg/kg) was 75.6%. For the same molecule, the C0 ([4]; mouse, IV dose 1 mg/kg, plasma) was 823 ng/mL, the AUC(0-t) ([4]; mouse, IV dose 1 mg/kg, plasma) was 925 ng·h/mL and the Cmax ([4]; mouse, Po dose 5 mg/kg, plasma) was 1080 ng/mL. It also gave an AUC(0-t) ([4]; mouse, Po dose 5 mg/kg, plasma) of 3440 ng·h/mL and an IC50 (LOVO cells) of 304 nM.
